Data as given in PubChem BioAssay AID1919009 (Molecular Pharmacology Branch, DTP, NCI, 2023).

Tested on: K24384-001-R-PDC complex spheroid growth
Experiment: Anticancer human tumor K24384-001-R-PDC patient-derived pancreatic adenocarcinoma cell line growth inhibition [AhR]
Conditions: for IC50: curve of first compound; for viability, T/C: stronger effect = lower value
Method in brief: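 Complex tumor spheroids co-cultured with HUVEC and human MSC stroma; AhR antagonists tested in combination with standard-of-care and investigational agents. Top concentration at or near clinical Cmax (else 10 microM), half-log dilutions; growth expressed as percent test/control.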

[1] = second compound 0.1 µM, first compound 0.0316 µM
[2] = second compound 0.1 µM, first compound 0.1 µM
[3] = second compound 0.1 µM, first compound 0.316 µM
[4] = second compound 0.1 µM, first compound 1 µM
[5] = second compound 0.1 µM, first compound 3.16 µM
[6] = second compound 0.1 µM, first compound 10 µM
[7] = second compound 0.316 µM, first compound 0.0316 µM
[8] = second compound 0.316 µM, first compound 0.1 µM
[9] = second compound 0.316 µM, first compound 0.316 µM
[10] = second compound 0.316 µM, first compound 1 µM
[11] = second compound 0.316 µM, first compound 3.16 µM
[12] = second compound 0.316 µM, first compound 10 µM
[13] = second compound 1 µM, first compound 0.0316 µM
[14] = second compound 1 µM, first compound 0.1 µM
[15] = second compound 1 µM, first compound 0.316 µM
[16] = second compound 1 µM, first compound 1 µM
[17] = second compound 1 µM, first compound 3.16 µM
[18] = second compound 1 µM, first compound 10 µM
[19] = second compound 3.16 µM, first compound 0.0316 µM
[20] = second compound 3.16 µM, first compound 0.1 µM
[21] = second compound 3.16 µM, first compound 0.316 µM
[22] = second compound 3.16 µM, first compound 1 µM
[23] = second compound 3.16 µM, first compound 3.16 µM
[24] = second compound 3.16 µM, first compound 10 µM
[25] = second compound 10 µM, first compound 0.0316 µM
[26] = second compound 10 µM, first compound 0.1 µM
[27] = second compound 10 µM, first compound 0.316 µM
[28] = second compound 10 µM, first compound 1 µM
[29] = second compound 10 µM, first compound 3.16 µM
[30] = second compound 10 µM, first compound 10 µM
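Throughout, for viability, T/C: percent of DMSO vehicle-treated spheroid viability set as 100%.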

`O=C(c1cc(Cc2n[nH]c(=O)c3ccccc23)ccc1F)N1CCN(C(=O)C2CC2)CC1` + Cc1cncc(-c2nc(NCCc3c[nH]c4ccccc34)c3ncn(C(C)C)c3n2)c1 showed an IC50 (second compound 0.1 µM) greater than 10 µM, an IC50 (second compound 0.316 µM) greater than 10 µM and an IC50 (second compound 1 µM) greater than 10 µM. The IC50 (second compound 3.16 µM) was greater than 10 µM, the IC50 (second compound 10 µM) was less than 0.0316 µM and the viability, T/C [1] was 128%. The viability, T/C [2] was 135%, the viability, T/C [3] was 140% and the viability, T/C [4] was 96.3%. It also gave a viability, T/C [5] of 78.5%, a viability, T/C [6] of 82.5% and a viability, T/C [7] of 155%. For the same molecule, the viability, T/C [8] was 157%, the viability, T/C [9] was 143% and the viability, T/C [10] was 117%. For the same molecule, the viability, T/C [11] was 106%, the viability, T/C [12] was 90.5% and the viability, T/C [13] was 137%. It also gave a viability, T/C [14] of 132%, a viability, T/C [15] of 142% and a viability, T/C [16] of 98.5%. The viability, T/C [17] was 128%, the viability, T/C [18] was 114% and the viability, T/C [19] was 106%. It also gave a viability, T/C [20] of 119%, a viability, T/C [21] of 135% and a viability, T/C [22] of 119%. The viability, T/C [23] was 119%, the viability, T/C [24] was 111% and the viability, T/C [25] was 17.7%. It also gave a viability, T/C [26] of 14%, a viability, T/C [27] of 13.2% and a viability, T/C [28] of 13.9%. For the same molecule, the viability, T/C [29] was 10.4% and the viability, T/C [30] was 8.74%.
Work on `O=C(C=Cc1cccc(S(=O)(=O)Nc2ccccc2)c1)NO` + Cc1cncc(-c2nc(NCCc3c[nH]c4ccccc34)c3ncn(C(C)C)c3n2)c1 yielded an IC50 (second compound 0.1 µM) of 1.84 µM, an IC50 (second compound 0.316 µM) of 2.11 µM and an IC50 (second compound 1 µM) of 2.35 µM. The IC50 (second compound 3.16 µM) was 2.32 µM, the IC50 (second compound 10 µM) was less than 0.0316 µM and the viability, T/C [1] was 107%. The viability, T/C [2] was 120%, the viability, T/C [3] was 108% and the viability, T/C [4] was 74.5%. The viability, T/C [5] was 28.2%, the viability, T/C [6] was 4.88% and the viability, T/C [7] was 139%. It also gave a viability, T/C [8] of 138%, a viability, T/C [9] of 135% and a viability, T/C [10] of 87.9%. The viability, T/C [11] was 30.3%, the viability, T/C [12] was 4.55% and the viability, T/C [13] was 129%. For the same molecule, the viability, T/C [14] was 141%, the viability, T/C [15] was 145% and the viability, T/C [16] was 85.6%. For the same molecule, the viability, T/C [17] was 41.1%, the viability, T/C [18] was 5.39% and the viability, T/C [19] was 118%. The viability, T/C [20] was 118%, the viability, T/C [21] was 111% and the viability, T/C [22] was 75.2%. The viability, T/C [23] was 41.9%, the viability, T/C [24] was 6.54% and the viability, T/C [25] was 28.9%. It also gave a viability, T/C [26] of 20.4%, a viability, T/C [27] of 17.7% and a viability, T/C [28] of 9.39%. For the same molecule, the viability, T/C [29] was 10.3% and the viability, T/C [30] was 2.79%.
Molecule `CCN(c1cc(-c2ccc(CN3CCOCC3)cc2)cc(C(=O)NCc2c(C)cc(C)[nH]c2=O)c1C)C1CCOCC1` + Cc1cncc(-c2nc(NCCc3c[nH]c4ccccc34)c3ncn(C(C)C)c3n2)c1 has an IC50 (second compound 0.1 µM) greater than 3 µM, an IC50 (second compound 0.316 µM) greater than 3 µM and an IC50 (second compound 1 µM) greater than 3 µM. The IC50 (second compound 3.16 µM) was greater than 3 µM, the IC50 (second compound 10 µM) was less than 0.00949 µM and the viability, T/C (second compound 0.1 µM, first compound 0.00949 µM) was 118%. It also gave a viability, T/C (second compound 0.1 µM, first compound 0.03 µM) of 126%, a viability, T/C (second compound 0.1 µM, first compound 0.0949 µM) of 129% and a viability, T/C (second compound 0.1 µM, first compound 0.3 µM) of 115%. For the same molecule, the viability, T/C (second compound 0.1 µM, first compound 0.949 µM) was 130%, the viability, T/C (second compound 0.1 µM, first compound 3 µM) was 133% and the viability, T/C (second compound 0.316 µM, first compound 0.00949 µM) was 138%. For the same molecule, the viability, T/C (second compound 0.316 µM, first compound 0.03 µM) was 139%, the viability, T/C (second compound 0.316 µM, first compound 0.0949 µM) was 150% and the viability, T/C (second compound 0.316 µM, first compound 0.3 µM) was 132%. It also gave a viability, T/C (second compound 0.316 µM, first compound 0.949 µM) of 120%, a viability, T/C (second compound 0.316 µM, first compound 3 µM) of 108% and a viability, T/C (second compound 1 µM, first compound 0.00949 µM) of 126%. For the same molecule, the viability, T/C (second compound 1 µM, first compound 0.03 µM) was 150%, the viability, T/C (second compound 1 µM, first compound 0.0949 µM) was 144% and the viability, T/C (second compound 1 µM, first compound 0.3 µM) was 133%. It also gave a viability, T/C (second compound 1 µM, first compound 0.949 µM) of 128%, a viability, T/C (second compound 1 µM, first compound 3 µM) of 120% and a viability, T/C (second compound 3.16 µM, first compound 0.00949 µM) of 116%. It also gave a viability, T/C (second compound 3.16 µM, first compound 0.03 µM) of 101%, a viability, T/C (second compound 3.16 µM, first compound 0.0949 µM) of 120% and a viability, T/C (second compound 3.16 µM, first compound 0.3 µM) of 113%. It also gave a viability, T/C (second compound 3.16 µM, first compound 0.949 µM) of 101%, a viability, T/C (second compound 3.16 µM, first compound 3 µM) of 96.1% and a viability, T/C (second compound 10 µM, first compound 0.00949 µM) of 18.7%. The viability, T/C (second compound 10 µM, first compound 0.03 µM) was 17.1%, the viability, T/C (second compound 10 µM, first compound 0.0949 µM) was 17.3% and the viability, T/C (second compound 10 µM, first compound 0.3 µM) was 11.9%. For the same molecule, the viability, T/C (second compound 10 µM, first compound 0.949 µM) was 10.1% and the viability, T/C (second compound 10 µM, first compound 3 µM) was 8.09%.
In the case of `CC1(C)CCC(CN2CCN(c3ccc(C(=O)NS(=O)(=O)c4ccc(NCC5CCOCC5)c([N+](=O)[O-])c4)c(Oc4cnc5[nH]ccc5c4)c3)CC2)=C(c2ccc(Cl)cc2)C1` + Cc1cncc(-c2nc(NCCc3c[nH]c4ccccc34)c3ncn(C(C)C)c3n2)c1, the IC50 (second compound 0.1 µM) is reported as 6.2 µM, the IC50 (second compound 0.316 µM) is reported as 5.76 µM and the IC50 (second compound 1 µM) is reported as 7.2 µM. For the same molecule, the IC50 (second compound 3.16 µM) was 7.67 µM, the IC50 (second compound 10 µM) was less than 0.0316 µM and the viability, T/C [1] was 137%. For the same molecule, the viability, T/C [2] was 128%, the viability, T/C [3] was 129% and the viability, T/C [4] was 86.7%. For the same molecule, the viability, T/C [5] was 101%, the viability, T/C [6] was 22% and the viability, T/C [7] was 134%. The viability, T/C [8] was 140%, the viability, T/C [9] was 126% and the viability, T/C [10] was 95.5%. It also gave a viability, T/C [11] of 92.7%, a viability, T/C [12] of 18.6% and a viability, T/C [13] of 117%. For the same molecule, the viability, T/C [14] was 157%, the viability, T/C [15] was 137% and the viability, T/C [16] was 122%. For the same molecule, the viability, T/C [17] was 119%, the viability, T/C [18] was 23.1% and the viability, T/C [19] was 116%. For the same molecule, the viability, T/C [20] was 148%, the viability, T/C [21] was 138% and the viability, T/C [22] was 119%. For the same molecule, the viability, T/C [23] was 124%, the viability, T/C [24] was 27.5% and the viability, T/C [25] was 20.5%. It also gave a viability, T/C [26] of 21%, a viability, T/C [27] of 16.6% and a viability, T/C [28] of 19.1%. The viability, T/C [29] was 19.9% and the viability, T/C [30] was 25%.
